Measured values taken from PubChem BioAssay (NCI).
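Where inhibition never reached the appropriate level, the endpoint shown equals the highest concentration tested. Otherwise, values were interpolated linearly from a five-concentration, 48-hour dose response in 96-well plates. TGI: concentration producing complete growth inhibition.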 Peptide text beside a SMILES is read from it. * marks the point of attachment. Boc = CC(C)(C)OC(=O)*

Assays:
Test in all cases: NCI tumour cell line growth inhibition, 48 h
MDA-MB-231 breast = system: MDA-MB-231 breast
RPMI-8226 leukemia = system: RPMI-8226 leukemia
A549 NSCLC = system: A549 NSCLC
786-0 renal = system: 786-0 renal
SNB-19 CNS = system: SNB-19 CNS
SW-620 colon = system: SW-620 colon
NCI-H226 lung = system: NCI-H226 lung
HCT-15 colon = system: HCT-15 colon
HCC-2998 colon = system: HCC-2998 colon

Structure (SMILES): Cc1cccc(N2CCN(S(=O)(=O)c3ccc(Cl)cc3)C2=N)c1C
- TGI (MDA-MB-231 breast): > 100 µM
- TGI (RPMI-8226 leukemia): > 100 µM
- TGI (A549 NSCLC): > 100 µM
- TGI (786-0 renal): > 100 µM
- TGI (SNB-19 CNS): > 100 µM
- TGI (SW-620 colon): > 100 µM
- TGI (NCI-H226 lung): > 100 µM

Structure (SMILES): COCCCN1C(=O)C2c3[nH]c4ccccc4c3C3CCC(C(C)(C)C)CC3C2C1=O (stereo not drawn)
- TGI (MDA-MB-231 breast): 56.3 µM
- TGI (RPMI-8226 leukemia): 56.1 µM
- TGI (A549 NSCLC): > 100 µM
- TGI (HCT-15 colon): 44.7 µM
- TGI (HCC-2998 colon): 54.6 µM
- TGI (786-0 renal): 63.1 µM
- TGI (SNB-19 CNS): > 100 µM
- TGI (SW-620 colon): > 100 µM
- TGI (NCI-H226 lung): 60.6 µM

Structure (SMILES): COc1ccc([C@@]23CCC(=O)C[C@@H]2N(C)CC3)cc1OC
- TGI (MDA-MB-231 breast): > 100 µM
- TGI (RPMI-8226 leukemia): > 100 µM
- TGI (A549 NSCLC): > 100 µM
- TGI (HCT-15 colon): > 100 µM
- TGI (HCC-2998 colon): > 100 µM
- TGI (786-0 renal): > 100 µM
- TGI (SNB-19 CNS): > 100 µM
- TGI (SW-620 colon): > 100 µM
- TGI (NCI-H226 lung): > 100 µM

Structure (SMILES): CC1=CC(c2ccccc2)n2c(nc3cc4ccccc4cc32)N1 (stereo not drawn)
- TGI (MDA-MB-231 breast): > 100 µM
- TGI (RPMI-8226 leukemia): > 100 µM
- TGI (A549 NSCLC): > 100 µM
- TGI (HCT-15 colon): > 100 µM
- TGI (HCC-2998 colon): > 100 µM
- TGI (786-0 renal): > 100 µM
- TGI (SNB-19 CNS): > 100 µM
- TGI (SW-620 colon): > 100 µM
- TGI (NCI-H226 lung): > 100 µM

Structure (SMILES): O=C1N2CCc3c([nH]c4ccccc34)C23CC2CCCC12S3 (stereo not drawn)
- TGI (MDA-MB-231 breast): > 50 µM
- TGI (RPMI-8226 leukemia): > 50 µM
- TGI (A549 NSCLC): > 50 µM
- TGI (HCT-15 colon): > 50 µM
- TGI (786-0 renal): > 50 µM
- TGI (SNB-19 CNS): > 50 µM
- TGI (SW-620 colon): > 50 µM
- TGI (NCI-H226 lung): > 50 µM

Structure (SMILES): CSCCC(NC(=O)C(CC(C)C)NC(=O)CNC(=O)OC(C)(C)C)C(=O)N(C)C (stereo not drawn) (Boc-Gly-Leu-Met-NMe2; configuration not given here)
- TGI (MDA-MB-231 breast): > 100 µM
- TGI (A549 NSCLC): > 100 µM
- TGI (HCT-15 colon): > 100 µM
- TGI (786-0 renal): > 100 µM
- TGI (SNB-19 CNS): > 100 µM
- TGI (SW-620 colon): > 100 µM
- TGI (NCI-H226 lung): > 100 µM

Structure (SMILES): COC1(OC)/C(=C(\N)C=O)NC(C)(C)N1O
- TGI (MDA-MB-231 breast): > 100 µM
- TGI (RPMI-8226 leukemia): > 100 µM
- TGI (A549 NSCLC): > 100 µM
- TGI (HCC-2998 colon): > 100 µM
- TGI (786-0 renal): > 100 µM
- TGI (SNB-19 CNS): > 100 µM
- TGI (SW-620 colon): > 100 µM
- TGI (NCI-H226 lung): > 100 µM

Structure (SMILES): c1csc(-c2ccc(-c3ccc(-c4cccs4)s3)s2)c1
- TGI (MDA-MB-231 breast): > 100 µM
- TGI (RPMI-8226 leukemia): > 100 µM
- TGI (A549 NSCLC): > 100 µM
- TGI (HCT-15 colon): > 100 µM
- TGI (HCC-2998 colon): > 100 µM
- TGI (786-0 renal): > 100 µM
- TGI (SNB-19 CNS): > 100 µM
- TGI (SW-620 colon): > 100 µM
- TGI (NCI-H226 lung): > 100 µM

Structure (SMILES): CSC1(SC)CCCCCCCCCCC1
- TGI (MDA-MB-231 breast): > 100 µM
- TGI (RPMI-8226 leukemia): > 100 µM
- TGI (A549 NSCLC): > 100 µM
- TGI (HCT-15 colon): > 100 µM
- TGI (HCC-2998 colon): 40.5 µM
- TGI (786-0 renal): > 100 µM
- TGI (SNB-19 CNS): > 100 µM
- TGI (SW-620 colon): > 100 µM
- TGI (NCI-H226 lung): > 100 µM

Structure (SMILES): Cc1ccc(S(=O)(=O)NC(=O)NS(=O)(=O)O)cc1
- TGI (MDA-MB-231 breast): > 100 µM
- TGI (RPMI-8226 leukemia): > 100 µM
- TGI (A549 NSCLC): > 100 µM
- TGI (HCT-15 colon): > 100 µM
- TGI (786-0 renal): > 100 µM
- TGI (SNB-19 CNS): > 100 µM
- TGI (SW-620 colon): > 100 µM

Structure (SMILES): C=CC1(CCC(Br)C(C)(C)Cl)CO1 (stereo not drawn)
- TGI (MDA-MB-231 breast): > 10 µM
- TGI (RPMI-8226 leukemia): > 10 µM
- TGI (A549 NSCLC): > 10 µM
- TGI (HCT-15 colon): > 10 µM
- TGI (HCC-2998 colon): > 10 µM
- TGI (786-0 renal): > 10 µM
- TGI (SNB-19 CNS): > 10 µM
- TGI (SW-620 colon): > 10 µM

Structure (SMILES): CSc1s[s+]c(SC)c1-c1ccccc1
- TGI (MDA-MB-231 breast): 31.2 µM
- TGI (RPMI-8226 leukemia): 56.7 µM
- TGI (A549 NSCLC): > 100 µM
- TGI (HCT-15 colon): 41.5 µM
- TGI (HCC-2998 colon): 21.5 µM
- TGI (786-0 renal): 28.1 µM
- TGI (SNB-19 CNS): 35.1 µM
- TGI (SW-620 colon): 34.9 µM
